This is an account of results in patent US20240132431A1, “METHOD FOR ALKYLATING ACIDIC FUNCTIONAL GROUP” (Chugai Seiyaku Kabushiki Kaisha, priority 2021, published 2024).

The target in this test is T1, Bcl-2 protein (Recombinant Human Bcl-2 Protein) (Homo sapiens, UniProt P10415).
T1 construct: purchased Novus NBP2-34889
The test is described as follows: Binding evaluation of mixture library compounds to Bcl-2 using AS-MS (affinity selection mass spectrometry). The settings on record: AS-MS, mixture library, Bcl-2, ASMS Ratio(%)=(A−C)/B×100; for ASMS ratio (%) n = 1: replicate n = 1; for ASMS ratio (%) n = 2: replicate n = 2. A digest of the protocol:
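Bcl-2 binding is scored from LC/MS signal retained with protein through gel-filtration spin columns, normalised to unfiltered and protein-free controls. Incubation: 20 μM protein, […] per compound, 1 h, 23° C.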

T1 sequence (P10415 whole entry): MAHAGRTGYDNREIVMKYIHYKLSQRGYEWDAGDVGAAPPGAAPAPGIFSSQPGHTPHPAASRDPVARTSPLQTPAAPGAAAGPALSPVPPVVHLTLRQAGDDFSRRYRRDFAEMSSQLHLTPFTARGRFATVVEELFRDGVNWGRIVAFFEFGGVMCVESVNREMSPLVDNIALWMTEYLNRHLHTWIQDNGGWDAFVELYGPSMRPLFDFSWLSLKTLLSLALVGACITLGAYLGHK

Consider `CCOc1cccc(-c2cnn(-c3cc(C(=O)N4CCN(c5ccc(C(=O)NS(C)(=O)=O)nn5)CC4)cc(C(F)(F)F)c3)c2)c1` [B2I021-01, 6-[4-[3-[4-(3-Ethoxyphenyl)pyrazol-1-yl]-5-(trifluoromethyl)benzoyl]piperazin-1-yl]-N-methylsulfonylpyridazine-3-carboxamide], for which the “ASMS ratio (%) n = 1” value is 0.0% and the “ASMS ratio (%) n = 2” value worked out at 0.0%.
For the molecule `CCOc1cncc(-c2cnn(-c3cc(C(=O)N4CCN(c5ccc(C(=O)NS(C)(=O)=O)nn5)CC4)cc(C(F)(F)F)c3)c2)c1` [B2I022-01, 6-[4-[3-[4-(5-Ethoxypyridin-3-yl)pyrazol-1-yl]-5-(trifluoromethyl)benzoyl]piperazin-1-yl]-N-methylsulfonylpyridazine-3-carboxamide], the “ASMS ratio (%) n = 1” value is given as 0.0% and the “ASMS ratio (%) n = 2” value is listed as 0.0%.
Regarding `CCOc1cccc(-c2csc(C(=O)N3CCN(c4ccc(C(=O)NS(C)(=O)=O)cc4)CC3)c2)c1` [B2I023-01, 4-[4-[4-(3-Ethoxyphenyl)thiophene-2-carbonyl]piperazin-1-yl]-N-methylsulfonylbenzamide], the “ASMS ratio (%) n = 1” value was determined as 0.0% and the “ASMS ratio (%) n = 2” value came out at 0.0%.
Turning to `CCOc1cncc(-c2csc(C(=O)N3CCN(c4ccc(C(=O)NS(C)(=O)=O)cc4)CC3)c2)c1` [B2I024-01, 4-[4-[4-(5-Ethoxypyridin-3-yl)thiophene-2-carbonyl]piperazin-1-yl]-N-methylsulfonylbenzamide], the “ASMS ratio (%) n = 1” value was 0.0% and the “ASMS ratio (%) n = 2” value was determined as 0.0%.
Turning to `CCOc1cccc(-c2ccc(C(=O)N3CCN(c4ccc(C(=O)NS(C)(=O)=O)cc4)CC3)cc2C)c1` [B2I025-01, 4-[4-[4-(3-Ethoxyphenyl)-3-methylbenzoyl]piperazin-1-yl]-N-methylsulfonylbenzamide], the “ASMS ratio (%) n = 1” value turned out to be 0.0% and the “ASMS ratio (%) n = 2” value turned out to be 0.0%.
`CCOc1cncc(-c2ccc(C(=O)N3CCN(c4ccc(C(=O)NS(C)(=O)=O)cc4)CC3)cc2C)c1` [B2I026-01, 4-[4-[4-(5-Ethoxypyridin-3-yl)-3-methylbenzoyl]piperazin-1-yl]-N-methylsulfonylbenzamide]: the “ASMS ratio (%) n = 1” value is reported as −2.6% and the “ASMS ratio (%) n = 2” value is reported as −0.2%.
The matching figures for `CCOc1cccc(-c2ccc(C(=O)N3CCN(c4ccc(C(=O)NS(C)(=O)=O)cc4)CC3)cc2F)c1` [B2I027-01, 4-[4-[4-(3-Ethoxyphenyl)-3-fluorobenzoyl]piperazin-1-yl]-N-methylsulfonylbenzamide]: 0.0% and 0.0%.
The corresponding values for `CCOc1cncc(-c2ccc(C(=O)N3CCN(c4ccc(C(=O)NS(C)(=O)=O)cc4)CC3)cc2F)c1` [B2I028-01, 4-[4-[4-(5-Ethoxypyridin-3-yl)-3-fluorobenzoyl]piperazin-1-yl]-N-methylsulfonylbenzamide] are 0.0% and 0.0%.
The matching figures for `CCOc1cccc(C#Cc2ccccc2C(=O)N2CCN(c3ccc(C(=O)NS(C)(=O)=O)cc3)CC2)c1` [B2I029-01, 4-[4-[2-[2-(3-Ethoxyphenyl)ethynyl]benzoyl]piperazin-1-yl]-N-methylsulfonylbenzamide]: 0.0% and 0.0%.
On to `CCOc1cncc(C#Cc2ccccc2C(=O)N2CCN(c3ccc(C(=O)NS(C)(=O)=O)cc3)CC2)c1` [B2I030-01, 4-[4-[2-[2-(5-Ethoxypyridin-3-yl)ethynyl]benzoyl]piperazin-1-yl]-N-methylsulfonylbenzamide], for which the “ASMS ratio (%) n = 1” value is given as 0.0% and the “ASMS ratio (%) n = 2” value was 0.0%.
For `CCOc1cccc(C#Cc2cncc(C(=O)N3CCN(c4ccc(C(=O)NS(C)(=O)=O)cc4)CC3)c2)c1` [B2I031-01, 4-[4-[5-[2-(3-Ethoxyphenyl)ethynyl]pyridine-3-carbonyl]piperazin-1-yl]-N-methylsulfonylbenzamide], the “ASMS ratio (%) n = 1” value amounted to 0.0% and the “ASMS ratio (%) n = 2” value was 0.0%.
